In the first experiment the target is T1, beta-catenin-B-cell lymphoma 9 protein complex (Homo sapiens, UniProt P35222).
T1 sequence (P35222 whole entry): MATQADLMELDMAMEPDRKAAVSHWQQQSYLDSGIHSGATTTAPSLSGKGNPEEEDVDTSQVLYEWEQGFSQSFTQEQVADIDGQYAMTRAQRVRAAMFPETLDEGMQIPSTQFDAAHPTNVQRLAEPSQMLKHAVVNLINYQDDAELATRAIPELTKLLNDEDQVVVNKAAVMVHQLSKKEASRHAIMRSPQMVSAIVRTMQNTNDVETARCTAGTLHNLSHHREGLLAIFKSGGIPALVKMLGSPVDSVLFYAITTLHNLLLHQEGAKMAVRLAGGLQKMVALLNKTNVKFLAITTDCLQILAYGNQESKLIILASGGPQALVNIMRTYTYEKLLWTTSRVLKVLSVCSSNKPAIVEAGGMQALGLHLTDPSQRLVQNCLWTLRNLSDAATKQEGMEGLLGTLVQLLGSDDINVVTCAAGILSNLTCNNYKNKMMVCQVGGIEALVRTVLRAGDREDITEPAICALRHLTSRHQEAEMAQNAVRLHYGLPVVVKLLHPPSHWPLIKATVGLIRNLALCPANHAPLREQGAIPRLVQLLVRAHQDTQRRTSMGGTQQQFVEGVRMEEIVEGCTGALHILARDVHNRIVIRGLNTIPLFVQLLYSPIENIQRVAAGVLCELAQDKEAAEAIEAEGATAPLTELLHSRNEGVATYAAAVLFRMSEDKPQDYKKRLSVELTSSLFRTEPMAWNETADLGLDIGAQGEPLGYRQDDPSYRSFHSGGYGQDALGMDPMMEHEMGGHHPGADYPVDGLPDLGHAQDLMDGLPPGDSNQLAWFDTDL
T1 sequence (O00512 whole entry): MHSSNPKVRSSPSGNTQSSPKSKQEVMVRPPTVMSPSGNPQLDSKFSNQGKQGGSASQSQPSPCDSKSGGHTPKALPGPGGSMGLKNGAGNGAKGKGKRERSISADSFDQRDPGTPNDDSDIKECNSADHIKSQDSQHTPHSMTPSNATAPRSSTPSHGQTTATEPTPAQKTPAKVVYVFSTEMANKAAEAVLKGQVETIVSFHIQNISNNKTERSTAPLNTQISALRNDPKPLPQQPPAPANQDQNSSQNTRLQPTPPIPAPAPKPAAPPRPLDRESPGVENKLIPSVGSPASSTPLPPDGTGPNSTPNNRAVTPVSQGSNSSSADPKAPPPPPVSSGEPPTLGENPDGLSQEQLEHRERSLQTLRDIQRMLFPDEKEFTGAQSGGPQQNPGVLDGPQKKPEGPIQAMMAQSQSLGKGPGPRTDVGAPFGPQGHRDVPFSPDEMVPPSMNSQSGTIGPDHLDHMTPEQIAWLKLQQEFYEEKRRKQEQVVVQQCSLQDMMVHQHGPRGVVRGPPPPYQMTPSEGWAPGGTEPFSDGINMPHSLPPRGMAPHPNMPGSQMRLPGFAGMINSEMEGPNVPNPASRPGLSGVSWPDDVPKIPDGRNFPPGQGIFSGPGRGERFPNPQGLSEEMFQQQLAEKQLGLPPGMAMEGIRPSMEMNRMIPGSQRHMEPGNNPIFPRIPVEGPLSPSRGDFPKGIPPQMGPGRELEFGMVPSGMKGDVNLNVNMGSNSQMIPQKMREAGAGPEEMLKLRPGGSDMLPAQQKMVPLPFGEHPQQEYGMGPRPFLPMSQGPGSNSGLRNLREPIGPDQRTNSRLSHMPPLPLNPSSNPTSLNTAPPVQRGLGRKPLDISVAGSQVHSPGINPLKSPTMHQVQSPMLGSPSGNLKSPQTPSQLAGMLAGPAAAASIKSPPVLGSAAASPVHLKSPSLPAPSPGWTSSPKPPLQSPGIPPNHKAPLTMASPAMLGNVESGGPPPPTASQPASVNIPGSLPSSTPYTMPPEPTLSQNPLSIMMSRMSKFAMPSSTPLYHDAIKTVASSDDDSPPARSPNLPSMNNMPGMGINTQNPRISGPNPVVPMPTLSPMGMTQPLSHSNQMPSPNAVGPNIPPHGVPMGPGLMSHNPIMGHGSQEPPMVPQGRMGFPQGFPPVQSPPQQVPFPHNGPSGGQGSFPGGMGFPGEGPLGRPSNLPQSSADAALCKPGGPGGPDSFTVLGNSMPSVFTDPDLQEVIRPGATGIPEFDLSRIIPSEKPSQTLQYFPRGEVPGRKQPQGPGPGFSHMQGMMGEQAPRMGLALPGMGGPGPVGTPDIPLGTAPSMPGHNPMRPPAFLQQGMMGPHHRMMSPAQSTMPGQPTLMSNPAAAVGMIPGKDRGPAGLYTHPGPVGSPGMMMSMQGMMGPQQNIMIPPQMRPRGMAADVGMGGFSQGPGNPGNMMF
Put plainly: Inhibition of beta-catenin (unknown origin) to BCL9-FAM (unknown origin) protein-protein interaction preincubated for 2 hrs followed by BCL9 addition and measured after 2 hrs by fluorescence polarization assay. It is filed as protein-complex assay.
Details: not given
(In general: Polarisation of emitted light reports the rotation of a fluorescent probe.)
Compound `CN1CCN(CCOc2cc(-c3oc4cc(O)cc(O)c4c(=O)c3O)ccc2O)CC1` came in with a half-inhibitory concentration (IC50) of 78.9 µM.
On the same count and under the same terms, as for `O=c1c(O)c(-c2ccc(O)c(OCCCN3CCCC3)c2)oc2cc(O)cc(O)c12`, the figure is 25.7 µM; as for `CCN(CC)CCCOc1cc(-c2oc3cc(O)cc(O)c3c(=O)c2O)ccc1O`, 11.7 µM; as for `CN1CCN(CCCOc2cc(O)c3c(=O)c(O)c(-c4ccc(O)c(O)c4)oc3c2)CC1`, 9.13 µM.
The same measure, in the same setting: the result for `COc1cc(OCCCN2CCOCC2)c2c(=O)c(O)c(-c3ccc(O)c(O)c3)oc2c1` reads 6.09 µM.

Another experiment concerns CT26. Description: Antiproliferative activity against mouse CT26 cells assessed as reduction in cell viability incubated for 48 hrs by CCK-8 assay. The settings on record: CT26, 48 h.
Take `CN1CCN(CCOc2cc(-c3oc4cc(O)cc(O)c4c(=O)c3O)ccc2O)CC1`: the IC50 worked out at 11.7 µM.
The same measure, in the same setting: the result for `O=c1c(O)c(-c2ccc(O)c(OCCCN3CCCC3)c2)oc2cc(O)cc(O)c12` reads 6.26 µM; that for `CCN(CC)CCCOc1cc(-c2oc3cc(O)cc(O)c3c(=O)c2O)ccc1O`, 23.7 µM.

Tested on in the next experiment: not listed separately
Description: Inhibition of Wnt/beta-catenin signaling in mouse CT26 cells assessed as reduction in Axin2 expression incubated for 24 hrs by qPCR analysis. The settings on record: CT26, 24 h. In general terms: Real-time PCR tracks product formation cycle by cycle.
As to `CN1CCN(CCOc2cc(-c3oc4cc(O)cc(O)c4c(=O)c3O)ccc2O)CC1`, the IC50 is 17.8 µM.
On the same count and under the same terms, as for `O=c1c(O)c(-c2ccc(O)c(OCCCN3CCCC3)c2)oc2cc(O)cc(O)c12`, the figure is 19.2 µM; as for `CCN(CC)CCCOc1cc(-c2oc3cc(O)cc(O)c3c(=O)c2O)ccc1O`, 11.2 µM.

A word on the IC50: it is the midpoint of a concentration-inhibition curve.

Source of the values: ChEMBL document CHEMBL5346872 (Eur J Med Chem, 2023).
